ChEMBL document CHEMBL6177971, “Iterative Optimization Yields Stapled Peptides with Superior Pharmacokinetics and Potency for Renal Fibrosis Treatment” (J Med Chem, 2025)
Activity calls are given as the source filed them. The calls are words filed in the database; no cut-off is given here. *1 amine or outer side, *2 acyl side, *3 side chain or, on linkers, in order; H or OH if unused. Where a SMILES comes first, the peptide text is derived from it. Bridges are numbered along the chain shown (N, C = ends). [ ]: non-standard residue; d: D form. Gly(pent-4-enyl) = C=CCCC[C@H](N)C(=O)O; Octanediyl(1,8) = C(CCCC[*:2])CCC[*:1]; S5 = C=CCCC[C@](C)(N)C(=O)O; X4 = C(CC[*:2])C[*:1]

Columns and labels:
[1] = Half life of compound; type: physicochemical
NIH3T3 [2] = experiment: Inhibition of TGF-beta1-induced EMT in mouse NIH3T3 cells assessed as decrease in alpha-SMA level at 10 uM incubated for 48 hrs by Western blot analysis; type: functional, cell-based
NIH3T3 [3] = experiment: Inhibition of TGF-beta1-induced EMT in mouse NIH3T3 cells assessed as decrease in fibronectin level at 10 uM incubated for 48 hrs by Western blot analysis; type: functional, cell-based
NIH3T3 [4] = experiment: Cytotoxicity against mouse NIH3T3 cells assessed as inhibition of cell viability up to 160 uM incubated for 48 hrs by CCK8 assay; type: toxicity, cell-based; conditions: nih3t3, 48 h
[5] = Stability in C57BL/6J mouse serum assessed as proteolysis resistance measured up to 72 hrs by HPLC analysis; type: ADME, cell-free

Compound	half-life [1] [h]	inhibition (NIH3T3 [2])	inhibition (NIH3T3 [3])	Activity (NIH3T3 [4])	Stability [5]
CC[C@H](C)[C@@H]1NC(=O)[C@H](CCC(N)=O)NC(=O)[C@@H]2CCCN2C(=O)[C@H](CC(N)=O)NC(=O)[C@H](CC(N)=O)NC(=O)[C@H](Cc2c[nH]cn2)NC(=O)[C@H](CC(=O)O)NC(=O)[C@H](CCCNC(=N)N)NC1=O (cyclo(DHNNPQIR))	9.97	Active	Active	Non-toxic	–
C=CCCC[C@H](NC(=O)[C@H](CCC(N)=O)NC(=O)[C@@H]1CCCN1C(=O)[C@H](CC(N)=O)NC(=O)[C@](C)(CCCC=C)NC(=O)[C@H](Cc1c[nH]cn1)NC(=O)[C@@H](N)CC(=O)O)C(=O)N[C@@H](CCCNC(=N)N)C(N)=O (H-DH[S5]NPQ[Gly(pent-4-enyl)]R-NH2)	0.9	Active	Active	Non-toxic	Stable
C=CCCC[C@](C)(NC(=O)[C@H](Cc1c[nH]cn1)NC(=O)[C@@H](CC(=O)O)NC(=O)CCCCCCCCCCCCCCC)C(=O)N[C@H](CC(N)=O)C(=O)N1CCC[C@H]1C(=O)N[C@@H](CCC(N)=O)C(=O)N[C@H](C)C(=O)N[C@@H](CCCNC(=N)N)C(N)=O	–	Active	Active	Toxic	–
H-HNNPQIRD-OH	0.57	–	–	Non-toxic	–
C[C@@H](NC(=O)[C@H](CCC(N)=O)NC(=O)[C@@H]1CCCN1C(=O)[C@@H](CC(N)=O)NC(=O)[C@H](CCC(N)=O)NC(=O)[C@H](Cc1c[nH]cn1)NC(=O)[C@H](N)CC(=O)O)C(=O)N[C@@H](CCCNC(=N)N)C(N)=O	424	Active	Active	Non-toxic	–
C[C@@H](NC(=O)[C@H](CCC(N)=O)NC(=O)[C@@H]1CCCN1C(=O)[C@@H](CC(N)=O)NC(=O)[C@H](CCCCN)NC(=O)[C@H](Cc1c[nH]cn1)NC(=O)[C@H](N)CC(=O)O)C(=O)N[C@@H](CCCNC(=N)N)C(N)=O	272	inactive	inactive	Non-toxic	–
C[C@@]1(C(=O)N[C@@H](CCCNC(=N)N)C(N)=O)CCC/C=C\CCC[C@](C)(NC(=O)[C@H](Cc2cnc[nH]2)NC(=O)[C@@H](N)CC(=O)O)C(=O)N[C@@H](CC(N)=O)C(=O)N2CCC[C@H]2C(=O)N[C@@H](CCC(N)=O)C(=O)N1 (H-DH[S5]NPQ[S5]R-NH2; staple (Z) 3-7)	1.11	inactive	inactive	Non-toxic	Stable
C[C@@H](NC(=O)[C@H](CCC(N)=O)NC(=O)[C@@H]1CCCN1C(=O)[C@@H](CC(N)=O)NC(=O)[C@H](Cc1ccccc1)NC(=O)[C@H](Cc1c[nH]cn1)NC(=O)[C@H](N)CC(=O)O)C(=O)N[C@@H](CCCNC(=N)N)C(N)=O	102	Active	Active	Non-toxic	–
C=CCCC[C@](C)(NC(=O)[C@@H](NC(=O)[C@H](CCC(N)=O)NC(=O)[C@@H]1CCCN1C(=O)[C@](C)(CCCC=C)NC(=O)[C@H](CC(N)=O)NC(=O)[C@H](Cc1c[nH]cn1)NC(=O)[C@@H](N)CC(=O)O)[C@@H](C)CC)C(N)=O (H-DHN[S5]PQI[S5]-NH2)	5.67	Active	Active	Non-toxic	Stable
C=CCCC[C@](C)(NC(=O)[C@H](Cc1c[nH]cn1)NC(=O)[C@@H](CC(=O)O)NC(=O)CCCCCCCCCCCCC)C(=O)N[C@H](CC(N)=O)C(=O)N1CCC[C@H]1C(=O)N[C@@H](CCC(N)=O)C(=O)N[C@H](C)C(=O)N[C@@H](CCCNC(=N)N)C(N)=O	–	Active	Active	Toxic	–
CC[C@H](C)[C@@H]1NC(=O)[C@H](CCC(N)=O)NC(=O)[C@@H]2CCCN2C(=O)[C@@H](NC(=O)[C@H](CC(N)=O)NC(=O)[C@H](Cc2c[nH]cn2)NC(=O)[C@@H](N)CC(=O)O)CSCCCCCCCCSC[C@@H](C(N)=O)NC1=O (H-DHNCPQIC-NH2; linker 4-8 via Octanediyl(1,8))	2.01	Active	Active	Non-toxic	Unstable
C=CCCC[C@](C)(NC(=O)[C@H](Cc1c[nH]cn1)NC(=O)[C@@H](N)CC(=O)O)C(=O)N[C@H]1CSCCCCSC[C@@H](C(N)=O)NC(=O)[C@H]([C@@H](C)CC)NC(=O)[C@H](CCC(N)=O)NC(=O)[C@@H]2CCCN2C1=O (H-DH[S5]CPQIC-NH2; linker 4-8 via X4)	54.1	Active	Active	Non-toxic	–
C=CCCC[C@](C)(NC(=O)[C@H](Cc1c[nH]cn1)NC(=O)[C@@H](N)CC(=O)O)C(=O)N[C@@H](CS)C(=O)N1CCC[C@H]1C(=O)N[C@@H](CCC(N)=O)C(=O)N[C@H](C(=O)N[C@@H](CS)C(N)=O)[C@@H](C)CC (H-DH[S5]CPQIC-NH2)	1.48	–	–	Non-toxic	Stable
C[C@@H](NC(=O)[C@H](CCC(N)=O)NC(=O)[C@@H]1CCCN1C(=O)[C@@H](CC(N)=O)NC(=O)[C@H](CC(N)=O)NC(=O)[C@H](Cc1c[nH]cn1)NC(=O)[C@H](N)CC(=O)O)C(=O)N[C@@H](CCCNC(=N)N)C(N)=O	101	Active	Active	Non-toxic	–
C=CCCC[C@](C)(NC(=O)[C@H](Cc1c[nH]cn1)NC(=O)[C@H](N)CC(=O)O)C(=O)N[C@H](CC(N)=O)C(=O)N1CCC[C@H]1C(=O)N[C@@H](CCC(N)=O)C(=O)N[C@H](C)C(=O)N[C@@H](CCCNC(=N)N)C(N)=O	129	Active	Active	Non-toxic	–
CC[C@H](C)[C@H](NC(=O)[C@H](Cc1c[nH]cn1)NC(=O)[C@H](N)CC(=O)O)C(=O)N[C@H](CC(N)=O)C(=O)N1CCC[C@H]1C(=O)N[C@@H](CCC(N)=O)C(=O)N[C@H](C)C(=O)N[C@@H](CCCNC(=N)N)C(N)=O	125	Active	Active	Non-toxic	–
C=CCCC[C@](C)(NC(=O)[C@H](Cc1c[nH]cn1)NC(=O)[C@@H](CC(=O)O)NC(=O)CCCCCCCCCCC)C(=O)N[C@H](CC(N)=O)C(=O)N1CCC[C@H]1C(=O)N[C@@H](CCC(N)=O)C(=O)N[C@H](C)C(=O)N[C@@H](CCCNC(=N)N)C(N)=O	–	Active	Active	Toxic	–
C=CCCC[C@](C)(NC(=O)[C@H](Cc1c[nH]cn1)NC(=O)[C@@H](CC(=O)O)NC(=O)CCCCCCCCCCCCCCCCC)C(=O)N[C@H](CC(N)=O)C(=O)N1CCC[C@H]1C(=O)N[C@@H](CCC(N)=O)C(=O)N[C@H](C)C(=O)N[C@@H](CCCNC(=N)N)C(N)=O	–	Active	Active	Toxic	–
CC[C@H](C)[C@H](NC(=O)[C@H](CCC(N)=O)NC(=O)[C@@H]1CCCN1C(=O)[C@H](CS)NC(=O)[C@H](CC(N)=O)NC(=O)[C@H](Cc1c[nH]cn1)NC(=O)[C@@H](N)CC(=O)O)C(=O)N[C@@H](CS)C(N)=O (H-DHNCPQIC-NH2)	3.82	–	–	Non-toxic	Stable
